Test results from patent US4613607A, “Medicaments based on derivatives of 1-(4-quinolyl)-2-(4-piperidyl)-ethanol or 1-(4-quinolyl)-3-(4-piperidyl)-propanol” (Pharmuka Laboratoires, priority 1980, dated 1986).
Counter-ions that a name gives are not always drawn. Like-named read-outs stand apart in the source and are kept apart here.

Assays:
[1] = tested on: fibrillations caused by an inhalation of chloroform; assay: Chloroform test on the mouse (protection against fibrillations caused by inhalation of chloroform); type: in vivo; details: ip, 20 min, read-out: Antiarhythmic activity, chloroform test on the mouse, AD50
Method: The product to be tested was administered intraperitoneally 20 minutes before chloroformic intoxication and the possible protection against the arhythmia was shown by recording of the electrocardiogram, which was effected from the appearance of the apnoea. The activity of the products is expressed by an AD50 (dose of product in mg/kg which protects 50% of the animals).

[2] = Acute toxicity to mice, intravenous; details: in vivo, male mouse DC1, i.v., 3 days observation
Excerpt: Toxicological properties of the compounds of formula (I): […]
The acute toxicities of the compounds of formula (I) (see results in the above Table) have been determined on the male mouse DC1 (Charles River), by the intravenous method. The LD50 have been calculated, after 3 days observation, by the cumulative method of J. J. Reed and H. Muench (Amer. J. Hyg., 27, 493, 1938).

[3] = tested on: ventricular arhythmia caused by the aconitine; assay: Aconitine test on the rat (delay of ventricular arhythmia caused by perfused aconitine); type: in vivo; details: iv, read-out: Antiarhythmic activity, aconitine test on the rat, ED50
Method: The principle of the method rests on the induction time of the ventricular arhythmia caused by the aconitine which is slowly fed by perfusion into rats. An antiarhythmic substance retards the appearance of the arhythmia and the delay is proportional to the activity of the substance.
Groups of 5 male rats were used. An individual anesthesia was effected (10% urethane: 1 g/kg/ip) in order to permit a catheterization of the vein of the penis. The electrocardiogram was recorded. At time T=0 the substance studied was injected in the form of an aqueous solution, at the rate of 2.5 ml of solution per kg in 30 seconds. At time T=60 seconds, say 30 seconds after the end of the injection, the aconitine was perfused at the rate of 20 μg per minute up to the appearance of supraventricular extra systoles. The time of perfusion of the aconitine was noted.
The results are expressed by an ED50, which is the dose of product, in mg/kg, increasing by 50% the time of perfusion of the aconitine in comparison with the perfusion time of aconitine for the control animals.

[4] = dose which protects 50% of the animals, intraperitoneal, 20 minutes before chloroform

For `C=C[C@H]1CNCC[C@H]1CCC(O)c1ccnc2ccc(OC)cc12` (mixture of isomers) [Example 5, Mixture of 3-[3(R)-ETHENYL 4(R)-PIPERIDYL]-1-(6-METHOXY-4-QUINOLYL)-1-(R)-PROPANOL and 3-[3(R)-ETHENYL 4(R)-PIPERIDYL]-1-(6-METHOXY-4-QUINOLYL)-1(S)-PROPANOL], the ED50 [1] was 3 mg/kg, the LD50 at 72 h [2] was 21.5 mg/kg and the ED50 [3] was 0.44 mg/kg.
Compound `OC(CCC1CCNCC1)c1cc(-c2ccccc2)nc2ccccc12` (racemic) [Example 4, 1-(2-PHENYL-4-QUINOLYL)-3-(4-PIPERIDYL)-1-PROPANOL] has an ED50 [1] of 2.5 mg/kg, an LD50 at 72 h [2] of 21 mg/kg and an ED50 [3] of 1.22 mg/kg.
`CC(C)(C)c1cc(C(O)CCC2CCNCC2)c2ccccc2n1` (racemic) [Example 12, 1-[2-(1,1-DIMETHYL-ETHYL)-4-QUINOLYL]-3-(4-PIPERIDYL)-1-PROPANOL] showed an LD50 at 72 h [2] of 26 mg/kg and an ED50 [3] of 0.8 mg/kg.
In the case of `CC[C@H]1CNCC[C@H]1CC[C@@H](O)c1ccnc2ccc(OC)cc12` [8 (1(R)-propanol isomer)], the ED50 [1, 4] is reported as 2.5 mg/kg, the LD50 at 72 h [2] is reported as 29 mg/kg and the ED50 [3] is reported as 0.65 mg/kg.
Work on `CC[C@H]1CNCC[C@H]1CC[C@H](O)c1ccnc2ccc(OC)cc12` [8 (1(S)-propanol isomer)] yielded an ED50 [1, 4] of 2.5 mg/kg, an LD50 at 72 h [2] of 17 mg/kg and an ED50 [3] of 0.58 mg/kg.
For `C=C[C@H]1CN(C)CC[C@H]1CC[C@H](O)c1ccnc2ccc(OC)cc12` [9 (3(R)-ethenyl isomer)], the ED50 [1, 4] was 5 mg/kg, the LD50 at 72 h [2] was 19 mg/kg and the ED50 [3] was 1 mg/kg.
With `C=C[C@@H]1CN(C)CC[C@H]1CC[C@H](O)c1ccnc2ccc(OC)cc12` [9 (3(S)-ethenyl isomer)] the ED50 [1, 4] was over 5 mg/kg, the LD50 at 72 h [2] was 33 mg/kg and the ED50 [3] was 1.4 mg/kg.
With `C=C[C@H]1CNCC[C@H]1CC[C@H](O)c1ccnc2ccc(OC)cc12` [Example 6, 3-[3(R)-ETHENYL 4(R)-PIPERIDYL]-1-(6-METHOXY-4-QUINOLYL)-1(S)-PROPANOL] the ED50 [1] was 3 mg/kg, the LD50 at 72 h [2] was 20.3 mg/kg and the ED50 [3] was 0.43 mg/kg.
Compound `C=C[C@H]1CNCC[C@H]1CC[C@@H](O)c1ccnc2ccc(OC)cc12` [Example 7, 3-[3(R)-ETHENYL 4(R)-PIPERIDYL]-1-(6-METHOXY-4-QUINOLYL)-1(R)-PROPANOL] has an ED50 [1] of 3 mg/kg, an LD50 at 72 h [2] of 33 mg/kg and an ED50 [3] of 0.45 mg/kg.
In the case of `C=C[C@H]1C[N@@]2CC[C@H]1C[C@@H]2[C@@H](O)c1ccnc2ccc(OC)cc12` [Quinidine sulfate, reference compound], the ED50 [1, 4] is reported as 18 mg/kg, the LD50 at 72 h [2] is reported as 60 mg/kg and the ED50 [3] is reported as 7.5 mg/kg.
